Assay results from patent US20050070509A1, “Antimycotic agent” (priority 2001, published 2005).

Tests used:
Assay type in all cases: cell-based
Candida albicans = assay: agar incorporation test, growth inhibition of yeasts; conditions: Sabouraud agar, 30° C., patient isolates
Procedure: (§1) The activity of the compound according to the invention as agent for inhibiting the growth of various types of yeasts was studied in an agar incorporation test. The nutrient medium used was Sabouraud agar. Several samples of each of the yeast types below, which were isolated directly from diseased patients, were tested: • a) Candida tropicalis • b) Candida albicans • c) Candida glabrata • d) Candida parapsilosis.
(§2) The cultures were supplemented with bis(N-cyclohexyldiazeniumdioxy)copper in such an amount that an end concentration of 25 or 50 ppm was obtained. The cultures were subsequently incubated at 30° C., and the growth of the isolates was assessed after an incubation period of 2 to 5 days.

Candida glabrata = assay: as above; conditions: Sabouraud agar, 30° C., patient isolates
Procedure: as §1, §2

Candida parapsilosis = assay: as above; conditions: Sabouraud agar, 30° C., patient isolates
Procedure: as §1, §2

Candida tropicalis = assay: as above; conditions: Sabouraud agar, 30° C., patient isolates
Procedure: as §1, §2

Epidermophyton floccosum = assay: agar incorporation test, growth inhibition of dermatophytes
Procedure: as §1, §2
(§3) The activity of the compound according to the invention for inhibiting the growth of the dermatophyte cultures below was studied in an agar incorporation test as described in Example 1. The active ingredient concentration in the samples amounted to 2.5, 5, 10, 15, 20, 25, 30, 35, 40, 45 and 50 ppm. The isolates were studied after an incubation period of 7, 14 and 21 days, and their growth was determined.

Microsporum canis = assay: as above
Procedure: as §1, §2, §3

[1] = tested on: Scopulariopsis brevicaulis; assay: as above
Procedure: as §1, §2, §3

Trichlorophyton rubrum = assay: as above
Procedure: as §1, §2, §3

[2] = tested on: Trichophyton mentagrophytes; assay: as above
Procedure: as §1, §2, §3

[3] = active ingredient 25 ppm, incubation 2 and 5 days
[4] = active ingredient 50 ppm, incubation 2 to 5 days

## O=NN([O-])C1CCCCC1.O=NN([O-])C1CCCCC1.[Cu+2] [bis(N-cyclohexyldiazeniumdioxy)copper]
Candida albicans; [3]
  growth of the isolates: still growing
Candida albicans; [4]
  growth of the isolates: no growth
Candida glabrata; [3]
  growth of the isolates: still growing
Candida glabrata; [4]
  growth of the isolates: no growth
Candida parapsilosis; [3]
  growth of the isolates: still growing
Candida parapsilosis; [4]
  growth of the isolates: no growth
Candida tropicalis; [3]
  growth of the isolates: still growing
Candida tropicalis; [4]
  growth of the isolates: no growth
Epidermophyton floccosum; incubation period 7 days
  Effective active ingredient concentration: 15 ppm
Epidermophyton floccosum; incubation period 14 days
  Effective active ingredient concentration: 20 ppm
Epidermophyton floccosum; incubation period 21 days
  Effective active ingredient concentration: 20 ppm
Microsporum canis; incubation period 7 days
  Effective active ingredient concentration: ≦10 ppm
Microsporum canis; incubation period 14 days
  Effective active ingredient concentration: 15 ppm
Microsporum canis; incubation period 21 days
  Effective active ingredient concentration: 15 ppm
[1]; incubation period 7 days
  Effective active ingredient concentration: 25 ppm
[1]; incubation period 14 days
  Effective active ingredient concentration: 35 ppm
[1]; incubation period 21 days
  Effective active ingredient concentration: 40 ppm
Trichlorophyton rubrum; incubation period 7 days
  Effective active ingredient concentration: 15 ppm
Trichlorophyton rubrum; incubation period 14 days
  Effective active ingredient concentration: 15 ppm
Trichlorophyton rubrum; incubation period 21 days
  Effective active ingredient concentration: 15 ppm
[2]; incubation period 7 days
  Effective active ingredient concentration: 30 ppm
[2]; incubation period 14 days
  Effective active ingredient concentration: 30 ppm
[2]; incubation period 21 days
  Effective active ingredient concentration: 30 ppm
